The record followed here is PubChem BioAssay (NCI).

SMILES strings stand for the structures. “And” between values parts separate entries of the source, which are not always exact repeats. Equal entries are not always repeated.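 96-well plates; 48 h exposure; 5 concentrations. Endpoints by linear interpolation between flanking doses. Not reached: highest tested concentration assigned. GI50 is the concentration that inhibits growth by half. Definition used: TGI = concentration required for complete inhibition of growth.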 Bounds are passed on as bounds.

Some test systems named below: MOLT-4 leukemia; IGROV1 ovarian; A549 NSCLC; OVCAR-5 ovarian; SK-OV-3 ovarian; SW-620 colon; KM12 colon; UACC-257 melanoma; OVCAR-8 ovarian; NCI-H460 lung.
Common to all, as to test: NCI-60 cell line screen, 48 h

On to `CCCCCOC(=O)c1c(C)[nH]c(/C=C2\N=C(c3ccc[nH]3)C=C2OC)c1C`, for which the GI50 is 0.0265 µM in the assay with MOLT-4 leukemia; 0.0494 µM in the assay on IGROV1 ovarian; 0.0293 µM with A549 NSCLC; 0.0191 µM in the assay with OVCAR-5 ovarian; 0.209 µM in the assay on SK-OV-3 ovarian; 0.0308 µM in the assay with SW-620 colon. Besides, the GI50 in the assay with KM12 colon is 0.0301 µM; in the assay with UACC-257 melanoma, 0.0953 µM; with OVCAR-8 ovarian it was 0.0373 µM; in the assay with NCI-H460 lung, 0.0309 µM. Also, the TGI was found to be 1.43 µM in the assay on MOLT-4 leukemia; 1.52 µM in the assay on IGROV1 ovarian; 0.184 µM in the assay on A549 NSCLC; 1.21 µM with OVCAR-5 ovarian; 2.38 µM with SK-OV-3 ovarian; 1.28 µM with SW-620 colon. In addition, the TGI came to 1.54 µM in the assay with KM12 colon, 1.28 µM in the assay with UACC-257 melanoma, 1.18 µM in the assay on OVCAR-8 ovarian and 1.47 µM with NCI-H460 lung.

Consider `O=C(O)c1c2c(c(O)c3c1CN(C1CCCCC1)CO3)OCN(C1CCCCC1)C2`, for which the TGI was 40.1 µM with MOLT-4 leukemia; more than 100 µM in the assay with IGROV1 ovarian; more than 100 µM in the assay on A549 NSCLC; more than 100 µM in the assay with OVCAR-5 ovarian; more than 100 µM in the assay with SK-OV-3 ovarian; 52.5 µM in the assay on SW-620 colon. The TGI in the assay with KM12 colon is more than 100 µM; in the assay with UACC-257 melanoma it was more than 100 µM; in the assay with OVCAR-8 ovarian, more than 100 µM; in the assay on NCI-H460 lung it was 35.1 µM.

On to `CC[O-].CC[O-].[O-]c1ccccc1C=NC12CC3CC(CC(C3)C1)C2.[O-]c1ccccc1C=NC12CC3CC(CC(C3)C1)C2.[Ti+4]`, for which the GI50 in the assay on MOLT-4 leukemia, in the assay with IGROV1 ovarian, with A549 NSCLC, in the assay with OVCAR-5 ovarian, in the assay with SK-OV-3 ovarian and with SW-620 colon was more than 100 µM throughout. The GI50 in the assay on KM12 colon, in the assay with UACC-257 melanoma, in the assay on OVCAR-8 ovarian and in the assay on NCI-H460 lung was more than 100 µM in each case. Also, the TGI in the assay with MOLT-4 leukemia, with IGROV1 ovarian, in the assay with A549 NSCLC, in the assay with OVCAR-5 ovarian, in the assay with SK-OV-3 ovarian and in the assay with SW-620 colon was more than 100 µM in each case. Also, the TGI in the assay with KM12 colon, in the assay on UACC-257 melanoma, in the assay with OVCAR-8 ovarian and with NCI-H460 lung was more than 100 µM in each case.

As to `CCOc1ccc2nc3cc(N)ccc3c(N)c2c1`, the GI50 in the assay with MOLT-4 leukemia was 2.99 µM and 3.26 µM; in the assay on IGROV1 ovarian it was 11.5 µM and 15.3 µM; in the assay with A549 NSCLC, 9.61 µM and 10.9 µM; with OVCAR-5 ovarian, 16.2 µM and 12.8 µM; in the assay with SK-OV-3 ovarian, 2.67 µM and 3.65 µM; in the assay with SW-620 colon it was 3.1 µM and 3.08 µM. Further, the GI50 was 2.73 µM and 1.06 µM with KM12 colon; 11 µM and 5.67 µM with UACC-257 melanoma; 2.68 µM and 2.55 µM with OVCAR-8 ovarian; 3.13 µM and 3.9 µM with NCI-H460 lung. Besides, the TGI is 12.2 µM and 12.4 µM in the assay on MOLT-4 leukemia; 37.3 µM and 45.4 µM with IGROV1 ovarian; 28.6 µM and 26.2 µM in the assay with A549 NSCLC; 39 µM and 25.6 µM in the assay with OVCAR-5 ovarian; 14.2 µM and 15.6 µM in the assay on SK-OV-3 ovarian; 16.2 µM and 14.4 µM with SW-620 colon. The TGI with KM12 colon was 17.1 µM and 12.9 µM; in the assay with UACC-257 melanoma, 28.6 µM and 21 µM; in the assay with OVCAR-8 ovarian, 15.8 µM and 13.1 µM; with NCI-H460 lung, 12.6 µM and 15.7 µM.

As for `CCN(Cc1ccccc1)c1ccc(/C=C2\COc3ccccc3C2=O)cc1`, the GI50 is 105 µM in the assay on MOLT-4 leukemia; more than 1000 µM in the assay with IGROV1 ovarian; more than 1000 µM in the assay with A549 NSCLC; more than 1000 µM in the assay on OVCAR-5 ovarian; more than 1000 µM with SK-OV-3 ovarian; 146 µM in the assay on SW-620 colon. For the same molecule, the GI50 with KM12 colon is 376 µM; in the assay with UACC-257 melanoma it was more than 1000 µM; in the assay on OVCAR-8 ovarian, more than 1000 µM; in the assay on NCI-H460 lung it was more than 1000 µM. For the same molecule, the TGI in the assay with MOLT-4 leukemia, in the assay with IGROV1 ovarian, in the assay with A549 NSCLC, in the assay on OVCAR-5 ovarian, in the assay with SK-OV-3 ovarian and with SW-620 colon was more than 1000 µM each time. The TGI with KM12 colon, in the assay with UACC-257 melanoma, in the assay with OVCAR-8 ovarian and with NCI-H460 lung was more than 1000 µM each time.

Consider `O=C(Nc1ccc(Nc2ccc3c(c2)C(=O)c2ccccc2C3=O)c2c1C(=O)c1ccccc1C2=O)c1ccccc1`, for which the TGI is more than 69.3 µM with MOLT-4 leukemia; more than 100 µM with IGROV1 ovarian; more than 100 µM in the assay with A549 NSCLC; more than 100 µM in the assay on OVCAR-5 ovarian; more than 100 µM in the assay with SK-OV-3 ovarian; more than 100 µM with SW-620 colon. For the same molecule, the TGI with KM12 colon was more than 100 µM; in the assay with UACC-257 melanoma it was more than 100 µM; in the assay with OVCAR-8 ovarian it was more than 100 µM; in the assay with NCI-H460 lung, 35.4 µM.

`C=CC(=O)N1CCN([C@@H](CC2CC2)c2ccc([C@H](C)Nc3ncc4c(n3)N(CC)C(=O)OC4)cc2)CC1`: the GI50 with MOLT-4 leukemia was 4.51 µM; in the assay on IGROV1 ovarian it was 4.58 µM; in the assay on A549 NSCLC, 11.4 µM; with OVCAR-5 ovarian it was 16.6 µM; in the assay on SK-OV-3 ovarian it was 14.5 µM; in the assay on SW-620 colon it was 14.2 µM. In addition, the GI50 in the assay on KM12 colon was 15.1 µM; with UACC-257 melanoma it was 10.9 µM; in the assay with OVCAR-8 ovarian it was 11.1 µM; in the assay with NCI-H460 lung it was 14.2 µM. For the same molecule, the TGI in the assay on MOLT-4 leukemia came to 26.4 µM; in the assay on IGROV1 ovarian it was 17.5 µM; in the assay with A549 NSCLC, 28.7 µM; in the assay with OVCAR-5 ovarian, 35.4 µM; with SK-OV-3 ovarian, 30.2 µM; in the assay on SW-620 colon it was 31.1 µM. Also, the TGI in the assay on KM12 colon turned out to be 34.6 µM; in the assay with UACC-257 melanoma, 25.5 µM; in the assay with OVCAR-8 ovarian, 26.7 µM; with NCI-H460 lung, 29.7 µM.

For `CC1COS(=O)N1c1ccccc1` (stereo not given), the TGI in the assay with MOLT-4 leukemia, in the assay on IGROV1 ovarian, in the assay with A549 NSCLC, with OVCAR-5 ovarian, in the assay with SK-OV-3 ovarian and with SW-620 colon was more than 100 µM each time. Also, the TGI with KM12 colon, in the assay on UACC-257 melanoma, in the assay with OVCAR-8 ovarian and with NCI-H460 lung was more than 100 µM each time.
